The first experiment deals with T1, hormone sensitive lipase, HSL (Rattus norvegicus, UniProt P15304).
T1 construct: Isolated rat fat cells are obtained from epididymal adipose tissue; from tissue; host or cells: rat epididymal adipose tissue (isolated fat cells, Wistar rats)
T1 sequence (P15304 301-1068 limits assumed): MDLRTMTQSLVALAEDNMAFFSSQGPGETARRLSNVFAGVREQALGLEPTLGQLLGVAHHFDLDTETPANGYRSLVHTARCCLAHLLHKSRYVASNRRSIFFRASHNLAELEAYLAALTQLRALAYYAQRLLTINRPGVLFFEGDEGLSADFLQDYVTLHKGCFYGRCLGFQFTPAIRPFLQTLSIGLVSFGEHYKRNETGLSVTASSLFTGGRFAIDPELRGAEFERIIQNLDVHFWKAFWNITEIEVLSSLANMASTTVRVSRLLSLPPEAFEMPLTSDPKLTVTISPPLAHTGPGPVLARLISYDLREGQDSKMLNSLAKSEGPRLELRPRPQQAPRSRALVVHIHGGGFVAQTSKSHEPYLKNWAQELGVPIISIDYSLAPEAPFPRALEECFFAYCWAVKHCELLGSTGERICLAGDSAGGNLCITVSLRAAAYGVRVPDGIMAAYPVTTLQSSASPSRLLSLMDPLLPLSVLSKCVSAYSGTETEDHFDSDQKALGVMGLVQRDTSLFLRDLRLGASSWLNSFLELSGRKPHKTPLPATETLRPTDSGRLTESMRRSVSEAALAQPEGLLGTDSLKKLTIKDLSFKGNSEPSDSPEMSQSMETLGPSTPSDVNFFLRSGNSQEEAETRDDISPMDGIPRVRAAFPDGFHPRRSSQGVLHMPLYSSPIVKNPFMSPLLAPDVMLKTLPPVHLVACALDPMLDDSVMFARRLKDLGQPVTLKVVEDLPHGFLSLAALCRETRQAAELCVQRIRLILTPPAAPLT
As to the kind of experiment: HSL inhibition assay (partially purified HSL, [3H]trioleoylglycerol substrate). Format: biochemical. The note with it: partially purified HSL from rat fat cells; 37° C., 30 min. How it is done: Preparation of the partially purified HSL:
Isolated rat fat cells are obtained from epididymal adipose tissue from untreated male rats (Wistar, 220-250 g) by collagenase treatment in accordance with published methods (e.g. S, Nilsson et al., Anal. Biochem. 158, 1986, 399-407; G. Fredrikson et al., J. Biol. Chem. 256, 1981, 6311-6320; H. Tornquist et al., J. Biol. Chem. 251, 1976, 813-819). The fat cells from 10 rats are washed three times by flotation with 50 ml of homogenization buffer ([…] Tris/HCl, pH 7.4, 0.25 M sucrose, 1 mM ETDA, 1 mM DTT, 10 μg/ml leupeptin, 10 μg/ml antipain, 20 μg/ml pepstatin) each time and finally taken up in 10 ml of homogenization buffer. The fat cells are homogenized in a Teflon-in-glass homogenizer (Braun-Melsungen) by 10 strokes at 1500 rpm and 15° C. The homogenate is centrifuged (Sorvall SM24 tubes, 5000 rpm, 10 min, 4° C.). The subnatant between the layer of fat at the top and the pellet is removed and the centrifugation is repeated. The subnatant resulting therefrom is centrifuged again (Sorvall SM24 tubes, 20 000 rpm, 45 min, 4° C.). […] After incubation at 4° C. for 60 min (shaking at intervals of 15 min), the mixture is centrifuged (Sorvall SM24 tubes, 3000 rpm, 10 min, 4° C.). The supernatant is adjusted to pH 5.2 by adding glacial acetic acid and is incubated at 4° C. for 30 min. The precipitates are collected by centrifugation (Sorvall SS34, 12 000 rpm, 10 min, 4° C.) and suspended in 2.5 ml of 20 mM Tris/HCl, pH 7.0, 1 mM EDTA, 65 mM NaCl, 13% sucrose, 1 mM DTT, 10 μg/ml leupeptin/pepstatin/antipain. The suspension is dialyzed against 25 mM Tris/HCl, pH 7.4, 50% glycerol, 1 mM DTT, 10 μg/ml leupeptin, pepstatin, antipain at 4° C. overnight and then loaded onto a hydroxiapatite column (0.1 g per 1 ml of suspension, equilibrated with 10 mM potassium phosphate, pH 7.0, 30% glycerol, 1 mM DTT). The column is washed with four volumes of equilibration buffer at a flow rate of 20 to 30 ml/h. The HSL is eluted with one volume of equilibration buffer containing 0.5 M potassium phosphate and then dialyzed (see above) and concentrated 5- to 10-fold by ultrafiltration (Amicon Diaflo PM 10 Filter) at 4° C. The partially purified HSL can be stored at −70° C. for 4 to 6 weeks.
To prepare the substrate, 25-50 μCi of [3H]trioleoylglycerol (in toluene), 6.8 μmol of unlabeled trioleoylglycerol and 0.6 mg of phospholipids (phosphatidylcholine/phosphatidylinositol 3:1 w/v) are mixed, dried with N2 and then taken up in 2 ml of 0.1 M KPi (pH 7.0) by ultrasound treatment (Branson 250, microtip, setting 1-2, 2×1 min with an interval of 1 min). After addition of 1 ml of KPi and renewed ultrasound treatment (4×30 sec on ice with intervals of 30 sec), 1 ml of 20% BSA (in KPi) is added (final concentration of trioleoylglycerol 1.7 mM). For the reaction, 100 μl of substrate solution are pipetted into 100 μl of HSL solution (HSL prepared as above, diluted in 20 mM KPi, pH 7.0, 1 mM EDTA, 1 mM DTT, 0.02% BSA, 20 μg/ml pepstatin, 10 μg/ml leupeptin) and incubated at 37° C. for 30 min. Addition of 3.25 ml of methanol/chloroform/heptane (10:9:7) and of 1.05 ml of 0.1 M K2CO3, 0.1 M boric acid (pH 10.5) is followed by thorough mixing and finally centrifugation (800×g, 20 min). After phase separation, one equivalent of the upper phase (1 ml) is removed and the radioactivity is determined by liquid scintillation measurement.
Substances are normally tested in four independent mixtures. The inhibition of the HSL enzymatic activity by a test substance is determined by comparing with an uninhibited control reaction. The IC50 is calculated from an inhibition plot with at least 10 concentrations of the test substance. The GRAPHIT, Elsevier-BIOSOFT software package is used to analyze the data.
On to `O=C(Oc1nn(C(=O)N2CCN(c3ccccc3)CC2)c2cc(F)ccc12)N1CCN(c2ccccc2)CC1` [Example 1a, 6-Fluoro-1-(4-phenylpiperazine-1-carbonyl)-1H-indazol-3-yl 4-phenylpiperazine-1-carboxylate], for which the IC50 was found to be 0.32 µM. Still for that read-out and setting: with `O=C(N1CCN(c2ccccc2)CC1)n1c(=O)c2ccc(F)cc2n1C(=O)N1CCN(c2ccccc2)CC1` [Example 1b, 6-fluoro-1,2-bis(4-phenylpiperazine-1-carbonyl)-1,2-dihydroindazol-3-one] the figure was 0.62 µM. Same read-out and setting: to `O=C(Oc1nn(C(=O)N2CCc3sccc3C2)c2cc(F)ccc12)N1CCc2sccc2C1` [Example 2, 1-(6,7-Dihydro-4H-thieno[3,2-c]pyridine-5-carbonyl)-6-fluoro-1H-indazol-3-yl 6,7-dihydro-4H-thieno[3,2-c]pyridine-5-carboxylate] belongs 1.11 µM; to `CC1CCN(C(=O)Oc2nn(C(=O)N3CCC(C)CC3)c3cc(F)ccc23)CC1` [Example 9b, 6-fluoro-1-(4-methylpiperidine-1-carbonyl)-1H-indazol-3-yl 4-methylpiperidine-1-carboxylate], 1.15 µM. The same measure, in the same setting: to `CC1CCN(C(=O)Oc2nn(C(=O)N3CCC(C(F)(F)F)CC3)c3cc(N)ccc23)CC1` [Example 14, 6-Amino-1-(4-trifluoromethylpiperidine-1-carbonyl)-1H-indazol-3-yl 4-methyl-piperidine-1-carboxylate] belongs 1 µM.

`Cc1cc(O)nc2c1c(OC(=O)N1CCC(C(F)(F)F)CC1)nn2C(=O)N1CCN(C)CC1` [Example 15, 6-Hydroxy-4-methyl-1-(4-methylpiperazine-1-carbonyl)-1H-pyrazolo[3,4-b]pyridin-3-yl 4-trifluoromethylpiperidine-1-carboxylate] displayed an IC50 of 1.5 µM. `Cc1cc(O)nc2c1c(OC(=O)N1CCC(C)CC1)nn2C(=O)N1CCC(C(F)(F)F)CC1` [Example 16, 6-Hydroxy-4-methyl-1-(4-trifluoromethylpiperidine-1-carbonyl)-1H-pyrazolo-[3,4-b]pyridin-3-yl 4-methylpiperidine-1-carboxylate] showed an IC50 of 0.58 µM.

The next experiment concerns the target T2, endothelial lipase (EL) (Homo sapiens, UniProt Q9Y5X9).
T2 construct: made in house; host or cells: recombinant cell lines CHO, HEK293 (conditioned medium, concentrated)
T2 sequence (Q9Y5X9 21-500): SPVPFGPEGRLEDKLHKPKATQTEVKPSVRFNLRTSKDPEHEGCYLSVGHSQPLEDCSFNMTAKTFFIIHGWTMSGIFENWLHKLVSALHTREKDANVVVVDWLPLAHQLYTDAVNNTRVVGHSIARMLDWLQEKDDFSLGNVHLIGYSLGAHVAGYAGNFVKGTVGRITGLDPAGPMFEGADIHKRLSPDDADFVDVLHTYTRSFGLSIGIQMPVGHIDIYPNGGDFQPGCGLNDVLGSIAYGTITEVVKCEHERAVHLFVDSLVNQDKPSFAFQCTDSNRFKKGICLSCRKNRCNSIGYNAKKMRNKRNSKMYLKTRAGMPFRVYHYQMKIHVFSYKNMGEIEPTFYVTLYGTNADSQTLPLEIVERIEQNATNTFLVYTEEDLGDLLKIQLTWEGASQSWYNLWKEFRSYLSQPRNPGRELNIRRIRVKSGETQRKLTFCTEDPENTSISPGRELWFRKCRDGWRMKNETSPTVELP
Put plainly: EL inhibition assay (conditioned medium of recombinant cell lines, Bodipy phospholipid substrate). Format: biochemical. The note with it: EL from conditioned medium (CHO, HEK293); 37° C., 60 minutes. From the text:
EL is released as secretory protein in high concentration into cell culture medium (conditioned medium) by recombinant cell lines (CHO, HEK293). This is employed as enzyme solution after concentration.
The phospholipase-specific substrate 1,2-bis(4,4-difluoro-5,7-dimethyl-4-bora-3a,4a-diaza-s-indacene-3-undecanoyl)-sn-glycero-3-phosphocholine, (manufacturer Molecular Probes) is used to characterize the enzymatic activity of endothelial lipase and the effect of inhibitors. Hydrolysis of the A1 ester linkage of this phospholipid by the enzyme liberates the fluorescent dye Bodipy which can be detected after separation by thin-layer chromatography on an HPTLC plate (silica gel 60, Merck) or directly in the reaction vessel by measuring the fluorescence.
The substrate solution is prepared by taking up 100 μg of 1,2-bis(4,4-difluoro-5,7-dimethyl-4-bora-3a,4a-diaza-s-indacene-3-undecanoyl)-sn-glycero-3-phospho-choline (manufacturer Molecular Probes), 2.4 mg of tripalmitin (Sigma) and 7.9 mg of DOP—choline (1,2-dioleoyl-sn-glycero-3-phosphocholine) in 393 μl of chloroform and then transferring 157 μl into a fresh reaction vessel. After evaporation of the solvent, the lipid mixture is dissolved in 4 ml of 200 mM TRIS-HCl, 150 mM sodium chloride, pH=7.4, by sonication twice. The subsequent enzymic reaction takes place at 37° C. for 60 minutes. For this purpose, 45 μl of the substrate solution are incubated with 1 μl of inhibitor of appropriate concentration (dissolved in DMSO, pure DMSO solution is used as control) and 5 μl of enzyme solution (conditioned medium). Then 3 μl of the assay mixture are loaded onto an HPTLC plate (silica gel 60, Merck), and the liberated fluorescent dye is separated for detection with an eluent (diethyl ether:petroleum benzene:acetic acid [78:22:1]). After evaporation of the eluent, the plate is read in a fluorescence scanner. An increased release of the fluorescent dye in the uninhibited reaction is to be observed as a measure of the enzymic activity.
The enzymatic activity is reduced as a function of the inhibitor concentration used, and the inhibitor concentration at which a half-maximum enzymatic activity is observed is called IC50.
For the compound “6-Chloro-3-oxo-3H-indazole-1,2-dicarboxylic acid bisbenzylamide [Example 11a]”, the IC50 was 0.26 µM. Still for that read-out and setting: with “6-Chloro-3-oxo-3H-indazole-1,2-dicarboxylic acid bishexylamide [Example 10a]” the figure was 0.05 µM. Still for that read-out and setting: with `CCCCCCNC(=O)Oc1nn(C(=O)NCCCCCC)c2cc(Cl)ccc12` [Example 10b, 6-chloro-1-hexylcarbamoyl-1H-indazol-3-yl hexylcarbamate] the figure was 0.06 µM; with `O=C(NCc1ccccc1)Oc1nn(C(=O)NCc2ccccc2)c2cc(Cl)ccc12` [Example 11b, 1-benzylcarbamoyl-6-chloro-1H-indazol-3-yl benzyl carbamate], 1.47 µM.

Regarding `Cc1ccccc1CNC(=O)n1c(=O)c2ccccc2n1C(=O)N1CCC(C)CC1` [Example 12, 1-(4-Methylpiperidine-1-carbonyl)-3-oxo-1,3-dihydroindazole-2-carboxylic acid 2-methylbenzylamide], the IC50 was 0.22 µM. Still for that read-out and setting: with `Cc1ccccc1CNC(=O)n1c(=O)c2ccccc2n1C(=O)NCc1ccccc1C` [Example 13, 3-Oxo-3H-indazole-1,2-dicarboxylic acid bis(2-methylbenzylamide)] the figure was 0.84 µM.

What is called IC50 is the concentration at which inhibition is half-maximal.

These data come from patent US7772268B2, “Diacyl indazole derivatives as lipase and phospholipase inhibitors” (Sanofi-Aventis, priority 2005, dated 2010).
